From ChEMBL document CHEMBL1201862, “PubChem BioAssay data set” (2004)
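Compound exposure: 48 hours, 5 concentrations, 96-well plates. Abbreviation: GI50, concentration required for 50% inhibition of growth.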 Calls of active or inactive are those of the source. No stated cut-off is given here; in the data, active = GI50 up to about 1.1 µM and inactive = higher.

Columns and labels:
Experiment in all cases: growth of human tumour cells (NCI), 48 h
BT-549 = tested on: BT-549
CCRF-CEM = tested on: CCRF-CEM
COLO 205 = tested on: COLO 205
HCT-15 = tested on: HCT-15
HL-60 = tested on: HL-60
HOP-62 = tested on: HOP-62
Hs-578T = tested on: Hs-578T
KM12 = tested on: KM12
MDA-MB-231 = tested on: MDA-MB-231
MDA-N = tested on: MDA-N
NCI-H460 = tested on: NCI-H460
PC-3 = tested on: PC-3
SF-295 = tested on: SF-295
SK-MEL-5 = tested on: SK-MEL-5
SR = tested on: SR
TK-10 = tested on: TK-10
UACC-257 = tested on: UACC-257
HCC 2998 = tested on: HCC 2998
UO-31 = tested on: UO-31

| Compound | GI50 (BT-549) | GI50 (CCRF-CEM) | GI50 (COLO 205) | GI50 (HCT-15) | GI50 (HL-60) | GI50 (HOP-62) | GI50 (Hs-578T) | GI50 (KM12) | GI50 (MDA-MB-231) | GI50 (MDA-N) | GI50 (NCI-H460) | GI50 (PC-3) | GI50 (SF-295) | GI50 (SK-MEL-5) | GI50 (SR) | GI50 (TK-10) | GI50 (UACC-257) | GI50 (HCC 2998) | GI50 (UO-31) |
| --- | --- | --- | --- | --- | --- | --- | --- | --- | --- | --- | --- | --- | --- | --- | --- | --- | --- | --- | --- |
| Cc1cc2nc3c(C#N)c4c(c(Nc5ccc(F)cc5)n3c2cc1C)CCC4 | > 100 µM (inactive) | > 100 µM (inactive) | > 100 µM (inactive) | > 100 µM | > 100 µM (inactive) | > 100 µM (inactive) | 70.5 µM (inactive) | > 100 µM (inactive) | > 100 µM (inactive) | > 100 µM (inactive) | > 100 µM (inactive) | > 100 µM (inactive) | > 100 µM (inactive) | > 100 µM (inactive) | > 100 µM (inactive) | > 100 µM (inactive) | > 100 µM (inactive) |  |  |
| Nn1c(=O)[nH]c2ncn(Cc3ccccc3)c2c1=O | > 100 µM (inactive) | > 100 µM (inactive) | > 100 µM (inactive) | > 100 µM | > 100 µM (inactive) | > 100 µM (inactive) | > 100 µM (inactive) | > 100 µM (inactive) | > 100 µM (inactive) | > 100 µM (inactive) | > 100 µM (inactive) | > 100 µM (inactive) | > 100 µM (inactive) | > 100 µM (inactive) | > 100 µM (inactive) | > 100 µM (inactive) | > 100 µM (inactive) | > 100 µM (inactive) | > 100 µM (inactive) |
| C[N+]1(CCC(=O)c2ccccc2)CCC2CCC(C2)C1 (configuration not stated) | > 100 µM (inactive) | > 100 µM (inactive) | > 100 µM (inactive) | > 100 µM | > 100 µM (inactive) | > 100 µM (inactive) | > 100 µM (inactive) | > 100 µM (inactive) | > 100 µM (inactive) | > 100 µM (inactive) | > 100 µM (inactive) | > 100 µM (inactive) | > 100 µM (inactive) | > 100 µM (inactive) | > 100 µM (inactive) | > 100 µM (inactive) | > 100 µM (inactive) | > 100 µM (inactive) | > 100 µM (inactive) |
| COc1ccc(N)c(C(O)CCNC(C)=O)c1 (configuration not stated) | > 100 µM (inactive) | > 100 µM (inactive) | > 100 µM (inactive) | > 100 µM | > 100 µM (inactive) |  | > 100 µM (inactive) | > 100 µM (inactive) | > 100 µM (inactive) | > 100 µM (inactive) | > 100 µM (inactive) | > 100 µM (inactive) | > 100 µM (inactive) | > 100 µM (inactive) | > 100 µM (inactive) | > 100 µM (inactive) | > 100 µM (inactive) |  | > 100 µM (inactive) |
| O=C1NC(=S)N(c2cccc3ccccc23)C(=O)/C1=C/c1c[nH]c2ccccc12 | 1.79 µM (inactive) | 1.76 µM (inactive) | 1.84 µM (inactive) | 1.67 µM | 2.21 µM (inactive) | 2.83 µM (inactive) | 3.52 µM (inactive) | 2.32 µM (inactive) | 2.16 µM (inactive) | 2.1 µM (inactive) | 2.36 µM (inactive) | 2.36 µM (inactive) | 3.07 µM (inactive) | 1.66 µM (inactive) | 1.41 µM (inactive) | 2.67 µM (inactive) | 2.31 µM (inactive) | 1.87 µM (inactive) | 2.15 µM (inactive) |
| NCCN(CCN(C(=O)Nc1ccccc1)c1ccccc1)C(=O)Nc1ccccc1 | 22.7 µM (inactive) | 41.6 µM (inactive) | 23 µM (inactive) | 24.5 µM | 18.9 µM (inactive) | 16.7 µM (inactive) | 19.2 µM (inactive) |  | 39.1 µM (inactive) | 20.3 µM (inactive) | 17.4 µM (inactive) | 24.5 µM (inactive) | 18.5 µM (inactive) | 18.5 µM (inactive) | 27.6 µM (inactive) | 24.5 µM (inactive) | 19 µM (inactive) | 19.8 µM (inactive) | 15.3 µM (inactive) |
| CCOc1ccccc1/N=N/C1C(=O)N(C(=O)CC(=O)Nc2ccccc2C)N=C1C (configuration not stated) | 65.5 µM (inactive) | > 100 µM (inactive) | > 100 µM (inactive) | 20.9 µM | > 100 µM (inactive) | 19.9 µM (inactive) | 6.55 µM (inactive) | > 100 µM (inactive) | 37.8 µM (inactive) | > 100 µM (inactive) | 43.7 µM (inactive) | > 100 µM (inactive) | 15.9 µM (inactive) | > 100 µM (inactive) | > 100 µM (inactive) | 52.4 µM (inactive) |  | > 100 µM (inactive) | 27.2 µM (inactive) |
| COc1cc(C2CC(C)(N3CCOCC3)Oc3cc4c(cc32)OCO4)cc(OC)c1OC (configuration not stated) | > 100 µM (inactive) | 0.0352 µM (active) | 0.845 µM (active) | 0.136 µM | 0.0228 µM (active) | 0.27 µM (active) | 0.191 µM (active) | 0.0634 µM (active) | 0.0748 µM (active) | 0.0452 µM (active) | 0.156 µM (active) | 0.116 µM (active) | 0.104 µM (active) | 0.103 µM (active) | 0.206 µM (active) |  | > 50.1 µM (inactive) | 0.427 µM (active) | 12.2 µM (inactive) |
| CC(=O)N(C)c1ccc(/N=C/N(C)C)cc1 | > 100 µM (inactive) | > 100 µM (inactive) | > 100 µM (inactive) | > 100 µM | > 100 µM (inactive) | > 100 µM (inactive) | > 10 µM (inactive) |  | > 100 µM (inactive) | > 100 µM (inactive) |  | > 100 µM (inactive) | > 100 µM (inactive) | > 100 µM (inactive) | > 100 µM (inactive) | > 100 µM (inactive) | > 100 µM (inactive) |  | > 100 µM (inactive) |
| CCOP(=O)(OCC)C1CC(n2cc(C)c(=O)[nH]c2=O)OC1CO (configuration not stated) | > 100 µM (inactive) | > 100 µM (inactive) |  | > 100 µM | > 100 µM (inactive) | > 100 µM (inactive) | > 100 µM (inactive) | > 100 µM (inactive) | > 100 µM (inactive) | > 100 µM (inactive) | > 100 µM (inactive) | > 100 µM (inactive) | > 100 µM (inactive) | > 100 µM (inactive) | > 100 µM (inactive) | > 100 µM (inactive) | > 100 µM (inactive) | > 100 µM (inactive) | > 100 µM (inactive) |
| O=C1NC(N2CCCC(CO)C2)=N/C1=C\c1ccc(Cl)cc1 (configuration not stated) | > 100 µM (inactive) | > 100 µM (inactive) | > 100 µM (inactive) | 77.6 µM | > 100 µM (inactive) | > 100 µM (inactive) | > 100 µM (inactive) | 63.7 µM (inactive) | > 100 µM (inactive) | > 100 µM (inactive) |  | > 100 µM (inactive) | > 100 µM (inactive) | > 100 µM (inactive) | > 100 µM (inactive) | > 100 µM (inactive) | > 100 µM (inactive) | 35.9 µM (inactive) | 75 µM (inactive) |
| CCOC(=O)/C=C(/OCC)[C@@H]1C(C(=O)c2ccc(Cl)cc2)[C@@H]1/C(=C\C(=O)OCC)OCC (some centres not stated) | 48.5 µM (inactive) | 5.69 µM (inactive) | 6.68 µM (inactive) | > 33 µM | 3.12 µM (inactive) | 14.3 µM (inactive) | 12.9 µM (inactive) | 6.87 µM (inactive) | 10.1 µM (inactive) | 17.5 µM (inactive) | 18.6 µM (inactive) | 5.89 µM (inactive) | 7.98 µM (inactive) | 4.41 µM (inactive) | 17.7 µM (inactive) | 6.32 µM (inactive) | 6.75 µM (inactive) |  | 4.53 µM (inactive) |
| Cc1ccc(-n2cc(-c3ccc(Cl)cc3)c3c2N=CN2N=C(c4cccs4)NC32)cc1 (configuration not stated) | 20.1 µM (inactive) | 11.2 µM (inactive) | 6.71 µM (inactive) | 51.8 µM | 19.1 µM (inactive) | 15.7 µM (inactive) | 2.07 µM (inactive) |  | 4.52 µM (inactive) | 26.8 µM (inactive) | 5.31 µM (inactive) | 16.5 µM (inactive) | 9.18 µM (inactive) | > 100 µM (inactive) | 7.64 µM (inactive) | 11.2 µM (inactive) | 38.9 µM (inactive) | 57 µM (inactive) | 7.64 µM (inactive) |
| Cc1ccc(C(=O)Nc2ccc(CP(=O)(O)O)cc2CP(=O)(O)O)cc1N | > 100 µM (inactive) | > 100 µM (inactive) | > 100 µM (inactive) | > 100 µM | > 100 µM (inactive) | > 100 µM (inactive) | > 100 µM (inactive) | > 100 µM (inactive) | > 100 µM (inactive) | > 100 µM (inactive) |  | > 100 µM (inactive) | > 100 µM (inactive) | > 100 µM (inactive) | > 100 µM (inactive) | > 100 µM (inactive) | > 100 µM (inactive) | > 100 µM (inactive) | > 100 µM (inactive) |
| c1ccc(C[n+]2cccc(-c3cc4ccccc4[nH]3)c2)cc1 | 13.4 µM (inactive) | 19.9 µM (inactive) | 15 µM (inactive) | > 100 µM | 17.6 µM (inactive) | 31.8 µM (inactive) | 20.2 µM (inactive) | 16.6 µM (inactive) | 37.2 µM (inactive) | 19.1 µM (inactive) | 25.3 µM (inactive) | 39.2 µM (inactive) | 77.8 µM (inactive) | 10.6 µM (inactive) | 32.1 µM (inactive) | 32.7 µM (inactive) | 14.9 µM (inactive) |  | > 100 µM (inactive) |
| O=C1c2scc(-c3ccccc3)c2-n2cccc21 | 25.9 µM (inactive) | 19.7 µM (inactive) | 17.8 µM (inactive) | 34.1 µM |  | 16.3 µM (inactive) | 4.59 µM (inactive) | 13.6 µM (inactive) | 14.8 µM (inactive) | 16.1 µM (inactive) | 31.1 µM (inactive) | 11.7 µM (inactive) | 18.1 µM (inactive) | 15.1 µM (inactive) | 13 µM (inactive) | 49.8 µM (inactive) | 30.1 µM (inactive) | 20.4 µM (inactive) | 22.5 µM (inactive) |
